# Reference: ChEMBL document CHEMBL1201862, “PubChem BioAssay data set” (2004)
#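 These data come from cells grown in 96-well plates and exposed to compound for 48 hours at five concentrations. Abbreviation: GI50, concentration required for 50% inhibition of growth.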 The source made the active and inactive calls. Cut-off read from the data, not from the text of the source: active = GI50 up to about 1.1 µM and inactive = higher.
# Key:
# Experiment in all cases: growth of human tumour cells (NCI), 48 h
# [1] = test system: OVCAR-3
# [2] = test system: HT-29
# [3] = test system: SK-MEL-28
# [4] = test system: SF-295
# [5] = test system: MCF7
# [6] = test system: HCC 2998
# [7] = test system: RPMI-8226
# [8] = test system: M14
# [9] = test system: SF-539
# [10] = test system: UO-31
# [11] = test system: SF-268
# [12] = test system: NCI-H460
# [13] = test system: HOP-62
# [14] = test system: UACC-257
# [15] = test system: HCT-15
# [16] = test system: KM12
# [17] = test system: MDA-MB-435
# [18] = test system: MDA-MB-231
Structure (SMILES),GI50 [1],GI50 [2],GI50 [3],GI50 [4],GI50 [5],GI50 [6],GI50 [7],GI50 [8],GI50 [9],GI50 [10],GI50 [11],GI50 [12],GI50 [13],GI50 [14],GI50 [15] [µM],GI50 [16],GI50 [17],GI50 [18]
O=C1c2ccccc2C2=Nc3ccncc3CN12,> 100 µM (inactive),> 100 µM (inactive),> 100 µM (inactive),> 100 µM (inactive),> 100 µM (inactive),> 100 µM (inactive),> 100 µM (inactive),> 100 µM (inactive),> 100 µM (inactive),> 100 µM (inactive),> 100 µM (inactive),> 100 µM (inactive),> 100 µM (inactive),> 100 µM (inactive),> 100,90.2 µM (inactive),,
CC(=O)Nc1ccc(S(=O)(=O)/N=c2/sc(S(N)(=O)=O)nn2C)cc1,> 100 µM (inactive),> 100 µM (inactive),> 100 µM (inactive),> 100 µM (inactive),,> 100 µM (inactive),> 100 µM (inactive),> 100 µM (inactive),> 100 µM (inactive),> 100 µM (inactive),> 100 µM (inactive),> 100 µM (inactive),> 100 µM (inactive),,> 100,> 100 µM (inactive),> 100 µM (inactive),> 100 µM (inactive)
COC(=O)C(=O)C(C#N)c1ccc(Cl)c(Cl)c1 (stereo not given),> 100 µM (inactive),> 100 µM (inactive),> 100 µM (inactive),> 100 µM (inactive),,,> 100 µM (inactive),> 100 µM (inactive),> 100 µM (inactive),> 100 µM (inactive),> 100 µM (inactive),,,> 100 µM (inactive),> 100,> 100 µM (inactive),,
COC(=O)NC(=O)c1cn(C2OC(CO)C(O)C2O)c(=O)[nH]c1=O (stereo not given),> 100 µM (inactive),> 100 µM (inactive),> 100 µM (inactive),> 100 µM (inactive),,> 100 µM (inactive),> 100 µM (inactive),> 100 µM (inactive),> 100 µM (inactive),> 100 µM (inactive),> 100 µM (inactive),> 100 µM (inactive),> 100 µM (inactive),> 100 µM (inactive),> 100,> 100 µM (inactive),,
COc1ccc2c(c1)CC1=C(O2)c2ccc(OC)cc2OC1,19.9 µM (inactive),20.7 µM (inactive),,52.2 µM (inactive),,38.5 µM (inactive),33.7 µM (inactive),19.7 µM (inactive),35.9 µM (inactive),61.2 µM (inactive),24.4 µM (inactive),,41.9 µM (inactive),19.2 µM (inactive),17.2,31 µM (inactive),17.5 µM (inactive),39.6 µM (inactive)
COC(=O)n1c(C)c(C=O)c2ccc(OC)cc21,59.6 µM (inactive),33.3 µM (inactive),,24.9 µM (inactive),37.2 µM (inactive),25.9 µM (inactive),,36.3 µM (inactive),21.9 µM (inactive),34.4 µM (inactive),> 10 µM (inactive),47.8 µM (inactive),16.4 µM (inactive),45.2 µM (inactive),31.1,36.4 µM (inactive),21.1 µM (inactive),> 100 µM (inactive)
O=C(CC1C(=O)Nc2ccccc2[S+]1[O-])Nc1ccc(Cl)cc1 (stereo not given),> 100 µM (inactive),> 100 µM (inactive),> 100 µM (inactive),> 100 µM (inactive),,79.6 µM (inactive),> 100 µM (inactive),> 100 µM (inactive),23.7 µM (inactive),35.1 µM (inactive),57.5 µM (inactive),> 100 µM (inactive),33.7 µM (inactive),69.5 µM (inactive),> 100,> 100 µM (inactive),,
